Experimental data taken from patent US20080139536A1, “Benzodiazepines for Treating or Preventing Rsv Infection” (Novartis Pharmaceuticals Corporation, priority 2004, published 2008).
pIC50: −log10 of the molar value.

Tests used:
RSV (RSS strain) = assay: RSV ELISA antigen reduction assay in Hep-2 cells; type: cell-based, Respiratory Syncytial Virus; details: RSV-infected Hep-2 cells, 3 day assay, ELISA OD 490 nm, 7-point dilution 50 μM-0.78 μM
Experimental: This was quantified by optical density (OD) measurement.
This assay was set up using all 96 wells of flat-bottomed 96-well plates. The outer wells were not subjected to any greater amount of evaporation than the inner wells during the 3 day assay period. (i.e. No “edge effect” seen).
Plates were set up one day before addition of virus and compounds. The assay then ran for 3 days with ELISA development taking place on the 4th day.
(§1) All 96 wells of a microtitre plate were seeded at a density of 4×10^3 Hep-2 cells/well in 100 μl/well of Growth Medium (GM) consisting of Dulbecco's MEM (DMEM) with Glutamax-1, Sodium Pyruvate, 1000 mg/l glucose and pyridoxine (Invitrogen, catalogue number 21885-025) and supplemented with 10% FBS. (See Plate 1).
A frozen vial of RSV (RSS strain provided by Virogen Ltd) stock solution was removed from the −80 freezer or liquid nitrogen store and diluted to a known Multiplicity of Infection (m.o.i) in Growth Medium.
The m.o.i. was calculated by prior titration of the virus stock (by the ELISA assay method) as the virus input required to achieve a window of at least 0.8 OD units between infected and uninfected control wells.
50 μl of diluted virus was added to infected, “virus+”, wells by multichannel pipette; 50 μl of Growth Medium was added to uninfected, cell control wells (CC) by multichannel pipette. (See Plate 2)
Plates were incubated at 37° C. for 1 hr to allow virus adsorption.
Compounds were made up at 4× strength in GM containing 2% DMSO (a final DMSO concentration in the assay of 0.5%).
(§2) Six compounds were tested on each assay plate as illustrated below. (See Plate 3). Compounds were tested in duplicate wells across a 7-point dilution series (from 50 μM-0.78 μM): in the presence of virus.
Virus infected, untreated wells served as the virus control (VC); Uninfected, untreated wells serve as the cell control (CC). The difference in absorbance between CC and VC wells constitutes the assay window.
200 μl of GM containing 2% DMSO was added to all wells except the ‘50 μM’ or first column, to which 392 μl of GM was added. 8 μl of each test compound was cherry-picked from a thawed Arrow screening plate and transferred to the appropriate well in the ‘50 μM’ column. Since the compound stock was at 10 mM in 100% DMSO, this will maintain the DMSO level at 2% at the top compound concentration.
Using a multichannel pipette, 200 μl was transferred from the 50 μM column to the 25 μM column, then to the 12.5 μM column and so on across the dilution plate creating a serial doubling dilution. Compounds were mixed upon transfer and tips changed between transfers, ensuring also that no compound was transferred to the last column of compound-free wells (0 μM).
The dilution plate was turned lengthways and 50 μl of compound easily transferred by multichannel pipette from the dilution plate to the assay plate, column by column. There was therefore an excess of 100 μl remaining in the dilution plate.
Plates were incubated at 37° C., 5% CO2 for 3 days.
Media was tapped out from wells directly into Virkon (1% solution in water) and plates were washed by immersing in a plastic box containing PBS. 50 μl/well of 75%/25% vol/vol acetone/methanol fixative was added by multichannel pipette and left for 3 mins.
Some 200 μl of blocking solution (2% Marvel in PBS containing 0.05% Tween) was added per well by multichannel pipette. Plates were incubated at 37° C. in a shaking incubator for 60 mins.
RSV mouse monoclonal antibody NCL-RSV3 (Novocastra) was diluted 1/400 in PBS/2% Marvel/0.05% Tween and 50 μl was added per well. Plates were incubated at 37° C. in a shaking incubator for 90 mins.
DAKo rabbit anti-mouse HRP conjugate (DAKO catalogue number P0260) was diluted 1/1000 in PBS/2% Marvel/0.05% Tween and 50 μl was added per well. Plates were incubated at 37° C. in a shaking incubator for 60 mins.
Substrate (SigmaFast OPD) was prepared in advance by dissolving 1 urea tablet in 20 mL water. […]

Hep-2 cells = assay: Cell toxicity: crystal violet staining and microscopic examination of monolayers; type: cell-based; details: Hep-2 monolayers of the assay plates, crystal violet stain, indications of cell toxicity; compounds tested 50 μM-0.78 μM
Experimental: as §1, §2
The wells were emptied, washed in tap water and the monolayers stained with 50 μl/well of 2% crystal violet in 20% methanol/water for at least 1 hour. The wells were then washed and air-dried and the monolayers examined under the microscope for indications of cell toxicity.

[1] = human respiratory syncytial virus, 72 h

| Compound | pIC50 (RSV (RSS strain); [1]) | TD50 (Hep-2 cells) | pIC50 (RSV (RSS strain)) |
| --- | --- | --- | --- |
| O=C(N[C@H]1N=C(c2ccccc2)c2ccccc2NC1=O)c1cccnc1N1CCOCC1 [Example 21, (S)-2-Morpholin-4-yl-N-(2-oxo-5-phenyl-2,3-dihydro-1H-benzo[e][1,4]diazepin-3-yl)-nicotinamide] | 5.00 to 5.30 | Tr25 |  |
| Cc1occ(S(=O)(=O)N2CCOCC2)c1C(=O)N[C@H]1N=C(c2ccccc2)c2ccccc2NC1=O [Example 46, (S)-2-Methyl-4-(morpholin-4-sulfonyl)-furan-3-carboxylic acid (2-oxo-5-phenyl-2,3-dihydro-1H-benzo[e][1,4]diazepin-3-yl)-amide] | 5.00 to 5.30 |  |  |
| O=C(N[C@H]1N=C(c2ccccc2)c2ccccc2NC1=O)c1occc1CN1CCOCC1 [Example 44, (S)-3-Morpholin-4-ylmethyl-furan-2-carboxylic acid (2-oxo-5-phenyl-2,3-dihydro-1H-benzo[e][1,4]diazepin-3-yl)-amide] | 5.00 to 5.30 |  |  |
| O=C(N[C@H]1N=C(c2ccccc2)c2ccccc2NC1=O)c1ccc(CO)o1 [Example 33, (S)-5-Hydroxymethyl-furan-2-carboxylic acid (2-oxo-5-phenyl-2,3-dihydro-1H-benzo[e][1,4]diazepin-3-yl)-amide] | 5.00 to 5.30 |  |  |
| O=C(N[C@H]1N=C(c2ccccc2)c2ccccc2NC1=O)c1cc(Cl)ccc1N1CCS(=O)(=O)CC1 [Example 6, (S)-5-Chloro-2-(1,1-dioxo-1λ6-thiomorpholin-4-yl)-N-(2-oxo-5-phenyl-2,3-dihydro-1H-benzo[e][1,4]diazepin-3-yl)-benzamide] | 5.00 to 5.30 |  |  |
| O=C(N[C@H]1N=C(c2ccccc2)c2ccccc2NC1=O)c1cc(C(F)(F)F)ccc1N1CCCC1 [Example 19, (S)—N-(2-Oxo-5-phenyl-2,3-dihydro-1H-benzo[e][1,4]diazepin-3-yl)-2-pyrrolidin-1-yl-5-trifluoromethyl-benzamide] | > 5.30 |  |  |
| O=C(N[C@H]1N=C(c2ccccc2)c2ccccc2NC1=O)c1csc(-c2cccnc2)n1 [Example 38, (S)-2-Pyridin-3-yl-thiazole-4-carboxylic acid (2-oxo-5-phenyl-2,3-dihydro-1H-benzo[e][1,4]diazepin-3-yl)-amide] | > 5.30 |  |  |
| N#Cc1ccc(C(=O)N[C@H]2N=C(c3ccccc3)c3ccccc3NC2=O)c(N2CCCCC2)c1 [Example 15, (S)-4-Cyano-N-(2-oxo-5-phenyl-2,3-dihydro-1H-benzo[e][1,4]diazepin-3-yl)-piperidine-1-yl-benzamide] |  | Tr25 | < 5.00 |
| (S)-2-(1,1-Dioxo-1λ6-thiomorpholin-4-yl)-N-(2-oxo-5-phenyl-2,3-dihydro-1H-benzo[e][1,4]diazepin-3-yl)-nicotinamide [Example 22] |  |  | < 5.00 |
| O=C(N[C@H]1N=C(c2ccccc2)c2ccccc2NC1=O)c1ccoc1CN1CCOCC1 [Example 41, (S)-2-Morpholin-4-ylmethyl-furan-3-carboxylic acid (2-oxo-5-phenyl-2,3-dihydro-1H-benzo[e][1,4]diazepin-3-yl)-amide] | > 5.30 |  |  |
| O=C(NC1N=C(c2ccccc2)c2ccccc2NC1=O)c1ccccc1N1CCOCC1 (racemic) [Example 50, 2-Morpholin-4-yl-N-(2-oxo-5-phenyl-2,3-dihydro-1H-benzo[e][1,4]diazepin-3-yl)-benzamide] | > 5.30 |  |  |
| O=C(Nc1ccc(Oc2ccccc2)cc1)NC1N=C(c2ccccc2)c2ccccc2NC1=O (racemic) [Example 52, 1-(2-Oxo-5-phenyl-2,3-dihydro-1H-benzo[e][1,4]diazepin-3-yl)-3-(4-phenoxy-phenyl)-urea] | 5.00 to 5.30 |  |  |
| O=C(N[C@H]1N=C(c2ccccc2)c2ccccc2NC1=O)c1ccc(CN2CCCCC2)o1 [Example 10, (S)-5-Piperidin-1-ylmethyl-furan-2-carboxylic acid (2-oxo-5-phenyl-2,3-dihydro-1H-benzo[e][1,4]diazepin-3-yl)-amide] | > 5.30 |  |  |
| Cc1nc(-c2cnccn2)sc1C(=O)N[C@H]1N=C(c2ccccc2)c2ccccc2NC1=O [Example 40, (S)-4-Methyl-2-pyrazin-2-yl-thiazole-5-carboxylic acid (2-oxo-5-phenyl-2,3-dihydro-1H-benzo[e][1,4]diazepin-3-yl)-amide] | 5.00 to 5.30 |  |  |
| CN1CCN(Cc2ccc(C(=O)N[C@H]3N=C(c4ccccc4)c4ccccc4NC3=O)o2)CC1 [Example 8, (S)-5-(4-Methyl-piperazin-1-ylmethyl)-furan-2-carboxylic acid (2-oxo-5-phenyl-2,3-dihydro-1H-benzo[e][1,4]diazepin-3-yl)-amide] | > 5.30 |  |  |
| O=C(N[C@H]1N=C(c2ccccc2)c2ccccc2NC1=O)c1ccc(F)cc1N1CCCCC1 [Example 12, (S)-4-Fluoro-N-(2-oxo-5-phenyl-2,3-dihydro-1H-benzo[e][1,4]diazepin-3-yl)-2-piperidin-1-yl-benzamide] | 5.00 to 5.30 |  |  |
| O=C(N[C@H]1N=C(c2ccccc2)c2ccccc2NC1=O)c1ccc(C(F)(F)F)cc1N1CCCCC1 [Example 17, (S)—N-(2-Oxo-5-phenyl-2,3-dihydro-1H-benzo[e][1,4]diazepin-3-yl)-2-piperidin-1-yl-4-trifluoromethyl-benzamide] | 5.00 to 5.30 |  |  |
| O=C(N[C@H]1N=C(c2ccccc2)c2ccccc2NC1=O)c1ccc(N2CCOCC2)nc1 [Example 47, (S)-6-Morpholin-4-yl-N-(2-oxo-5-phenyl-2,3-dihydro-1H-benzo[e][1,4]diazepin-3-yl)-nicotinamide] | > 5.30 |  |  |
| CN(CCS(C)(=O)=O)Cc1ccc(C(=O)N[C@H]2N=C(c3ccccc3)c3ccccc3NC2=O)o1 [Example 37] |  |  | > 5.30 |
| O=C(N[C@H]1N=C(c2ccccc2)c2ccccc2NC1=O)c1ccc(-c2ccccn2)s1 [Example 45, (S)-5-Pyridin-2-yl-thiophene-2-carboxylic acid (2-oxo-5-phenyl-2,3-dihydro-1H-benzo[e][1,4]diazepin-3-yl)-amide] | > 5.30 |  |  |
| O=C(N[C@H]1N=C(c2ccccc2)c2ccccc2NC1=O)c1ncoc1-c1ccccc1 [Example 51, (S)-5-Phenyl-oxazole-4-carboxylic acid (2-oxo-5-phenyl-2,3-dihydro-1H-benzo[e][1,4]diazepin-3-yl)-amide] | > 5.30 |  |  |
| O=C(N[C@H]1N=C(c2ccccc2)c2ccccc2NC1=O)c1c(Cl)cccc1N1CCS(=O)(=O)CC1 [Example 26, (S)-2-Chloro-6-(1,1-dioxo-1,6-thiomorpholin-4-yl)-N-(2-oxo-5-phenyl-2,3-dihydro-1H-benzo[e][1,4]diazepin-3-yl)-benzamide] |  |  | > 5.30 |
| Cc1cccc(C(=O)N[C@H]2N=C(c3ccccc3)c3ccccc3NC2=O)c1N1CCS(=O)(=O)CC1 [Example 23, (S)-2-(1,1-Dioxo-1λ6-thiomorpholin-4-yl)-3-methyl-N-(2-oxo-5-phenyl-2,3-dihydro-1H-benzo[e][1,4]diazepin-3-yl)-benzamide] | > 5.30 |  |  |
| O=C(N[C@H]1N=C(c2ccccc2)c2ccccc2NC1=O)c1ccc(F)cc1N1CCOCC1 [Example 13, (S)-4-Fluoro-2-morpholino-4-yl-N-(2-oxo-5-phenyl-2,3-dihydro-1H-benzo[e][1,4]diazepin-3-yl)-benzamide] |  |  | 5.00 to 5.30 |
